Counter-ions that a name gives are not always drawn.
Assays:
[1] = target: T1, 3FY-αSN (monomeric αSN) (Homo sapiens, UniProt P37840); assay: Protein-observed fluorine NMR (PrOF NMR); assay type: binding; conditions: for 19F chemical shifts / resonance broadening on titration: 20 μM 3FY-αSN, compound titration
T1 construct: made in house
Method: PrOF NMR provides a perturbation-free method to monitor αSN conformation and structure through the incorporation of F19-labeled 3-fluoro-Tyrosine into recombinant protein[89].
Experiments were run on a Bruker 600-MHz Avance NEO (6001), equipped with a 5 mm triple resonance cryoprobe. 3FY-αSN was diluted in PBS, pH = 7.4 buffer by the addition of D2O and 0.1% trifluoroacetic acid (TFA) to final concentrations of 5 and 0.07%, respectively, in a total NMR sample volume of 150 µL. Two one-dimensional ^19F NMR spectra were taken of the protein sample at an O1P of −75 ppm, NS = 16, D1 = 1 s, and AQ = 0.5 s (TFA reference set to −75.25 ppm) and an O1P of −136 ppm, NS = 3072, D1 = 0.6 s, and AQ = 0.05 s (protein resonances). Ligand stock solutions of 1–10 mM were prepared in DMSO and titrated into the protein solutions (20 μM). As a control experiment, in a separate NMR tube, DMSO was added to a final concentration of 0.5, 0.6, 0.8, 1.5, and 2.5% to control for any solvent-induced chemical shifts. For each concentration, a TFA reference spectrum and a protein 1D-^19F NMR spectrum were acquired.
Supplemental Figure 20. PrOF NMR experiments with hit compounds and fluorinated αSN support a lack of binding to monomeric αSN. (a) 19F NMR spectrum and assignments of 3FY- αSN. The resulting spectrum is consistent with the spectrum of monomeric 3FY- αSN reported by 4. Corresponding assignments are used from that report. Stacked 19F NMR spectra with an increasing concentration of (b) Ro 90-7501 and (c) DEM HCl […]
compound binding to monomeric αSN. An exception is at high concentrations of Ro 90-7501(110 μM) a small degree of chemical shift perturbation is observed.
(1 picture or pasted object on this page, not shown here)

[2] = test system: inter-protomeric and intra-protomeric αSN FRET biosensors in HEK293 cells; assay: Pilot HTS of the LOPAC library, fluorescence lifetime (FLT) of cellular αSN FRET biosensors; assay type: cell-based, human; conditions: 10 µM compound, 90 min; hit = FLT change >5 SD
Method: Prior to each pilot HTS, FLT and emission spectrum were measured to verify signal level, basal FRET, coefficient of variance (CV), and similarity index. For each HTS, cells were dispensed into compound plates—1536-well (10 µL/well)—and incubated with the compounds (10 µM) or dimethyl sulfoxide (DMSO; 1%) for 90 min. FLT measurements were acquired with the FLT-PR. After deconvolving the instrument response function, a single exponential fit was used to determine the FLT for both the αSN cellular FRET biosensor (τDA) and the donor-only control biosensor (τD). FRET efficiency was determined by Eq. 1. CV was determined from control plates (N = 384 wells).
Fluorescent compounds (FC) were flagged using a spectral similarity index filter, which evaluates the ratio of intensity from two bandwidths that span the donor emission spectrum and are excluded as potential false positives[45],[46],[49],[51],[66]. […] Compounds that changed FLT by >5 standard deviations (SD) were considered hits (Fig. 5, red data points).
On each day of screening, the compound plates were equilibrated to room temperature (RT; 25 °C). The cells were harvested from the 100-mm plates by incubating with TrypLE (Invitrogen) for 2 min, washed three times in PBS by centrifugation at 200 × g, and filtered using 70-μm cell strainers (BD Falcon). Cell viability prior to screen was assessed using a trypan blue assay and confirmed to be >80%. Cells were diluted to 1.5E6 cells/mL. Expression of GFP-αSN and the αSN biosensors were confirmed by fluorescence microscopy prior to each screen (EvosFL-Auto microscope, Thermo Fisher Scientific, USA). During screening, cells (50 μL/well for 384-well; 10 μL/well for 1536-well) were dispensed by a Multidrop Combi liquid dispenser (Thermo, Pittsburg, PA, USA) into the assay plates containing the compounds and allowed to incubate at RT for 90 min before recording with the FLT-PR or SUPR (both instruments manufactured by Fluorescence Innovations Inc., both owned and provided by Photonic Pharma LLC), as described previously[46].
Interfering compounds were flagged as potential false positives by a set of stringent FC filters based on spectral analysis of each well from the LOPAC screen[45],[46]. After removal of FCs, a histogram of the FLT distribution from all compounds in the screen was plotted and fit to a Gaussian curve to obtain the mean (µ) and SD (σ). A hit was defined as a compound that attenuated the FLT efficiency by >5σ relative to the mean µ (Supplementary Fig. 12).

[3] = target: T2, labeled αSN (monomeric) (Homo sapiens, UniProt P37840, E130C/T54C); assay: smFRET measurements of αSN monomer conformation; conditions: αSN labeled at 54-130C; +20μM compound; mean ± standard deviation
T2 construct: made in house; host or cells: Escherichia coli BL21(DE3)
Method: (§1) SmFRET experiments were performed using two different labeled αSN constructs (residues 9–72 and residues 54–130) that report on intra-monomeric FRET (e.g., monomer conformation) of the N-terminal and C-terminal domains of αSN. […] We were not able to evaluate RO with smFRET, due to interactions of RO with the AlexaFluor-594 label.
(§2) Single-molecule FRET measurements were carried out using ~30 pM of labeled αSN in 20 mM Tris pH 7.4 and 50 mM NaCl in 8-chambered Nunc coverslips (ThermoFisher) passivated with poly(ethylene glycol) poly(L-lysine) to reduce protein adsorption to the chambers. Measurements were made on a MicroTime 200 time-resolved confocal microscope (Picoquant) as described previously. Laser power was adjusted to ~30 μW before sample illumination. Fluorescence emission was collected through the objective and passed through a 150-μm diameter pinhole. Photons were separated by an HQ585LP dichroic in combination with ET525/50M and HQ600LP filters and detected by avalanche photodiodes. Photon traces were collected in 1-ms time bins for 1 h. A cutoff of 25 counts/ms was applied to discriminate between bursts arising from fluorescently labeled protein and background noise. The FRET efficiency (Eeff) was calculated using the SymphoTime 64 software. SmFRET histograms were fit with Gaussian distributions to determine the peak Eeff values. Each measurement was carried out three times and mean Eeff values are the average and SD of these measurements (Supplementary Table 2). Alignment of instrument and analysis were verified using smFRET reference standards consisting of 10, 14, and 18 base pair dsDNA labeled with Alexa 488 and Alex 594 with their 5’ and 3’ ends.

[4] = target: T3, labeled αSN (monomeric) (Homo sapiens, UniProt P37840, S9C/T72C); assay: smFRET measurements of αSN monomer conformation; conditions: αSN labeled at 9C-72C; +20μM compound; mean ± standard deviation
T3 construct: made in house; host or cells: Escherichia coli BL21(DE3)
Method: as §1, §2

Row | Structure (SMILES) | 19F chemical shifts / resonance broadening on titration [1] | identified as hit in the LOPAC screen [2] | Eeff (smFRET efficiency) [3] | Eeff (smFRET efficiency) [4] | 19F chemical shift perturbation at high concentration ([1]; 20 µM 3FY-αSN, 110 μM compound)
1 | CN(C)[C@@H]1C(O)=C(C(N)=O)C(=O)[C@@]2(O)C(O)=C3C(=O)c4c(O)ccc(Cl)c4[C@@H](O)[C@H]3C[C@@H]12 [DEM, Demeclocycline HCl] | no significant chemical shifts or resonance broadening | identified | 0.60 ± 0.008 | 0.55 ± 0.005 | 
2 | Nc1ccc(-c2nc3ccc(-c4nc5ccc(N)cc5[nH]4)cc3[nH]2)cc1 [RO, Ro 90–7501] | no significant chemical shifts or resonance broadening |  |  |  | small degree of chemical shift perturbation
3 | COC(=O)C1=C(C)NC(C)=C([N+](=O)[O-])C1c1ccccc1C(F)(F)F (racemic) [BAY, (±)-Bay K 8644] |  |  | 0.58 ± 0.005 | 0.54 ± 0.013 | 

— PMC8238948, “Potent inhibitors of toxic alpha-synuclein identified via cellular time-resolved FRET biosensors” (NPJ Parkinson's Disease, 2021)
